These results are taken from publication PMC8279409, “Novel Mixed NOP/Opioid Receptor Peptide Agonists” (Journal of Medicinal Chemistry, 2021).

Where two headings read alike, the source gives them in different places.

The target of assay [1] is T1, human mu receptor (Homo sapiens, UniProt P35372).
T1 construct: expressed in transfected cells; host or cells: CHO cells stably coexpressing the receptor and chimeric Gαqi5
In words: Dynamic mass redistribution (DMR), mu receptor. The assay is classed as cell-based. The following applies: for mu Emax ± S.E.M.: maximum picometer (pm) modification (peak), mean ± SEM of at least three experiments in duplicate. As to the method:
(§1) CHO cells stably expressing the human NOP and mu receptors were kindly provided by D.G. Lambert (University of Leicester, UK). Cells were cultured in DMEM/F-12 medium supplemented with 10% FBS, 100 U/mL penicillin, 100 μg/mL streptomycin, and 2 mmol/L L-glutamine. The medium was supplemented with 400 μg/mL G418 to maintain expression. Cells were cultured at 37 °C in 5% CO2 humidified air. For DMR measurements, the label-free EnSight Multimode Plate Reader (Perkin Elmer, MA, US) was used. Cells were seeded 15,000 cells/well in a volume of 30 μL onto fibronectin-coated 384-well DMR microplates and cultured for 20 h to obtain confluent monolayers. Cells were starved in the assay buffer (HBSS with 20 mM HEPES, 0.01% BSA fraction V) for 90 min before the test. Serial dilutions were made in the assay buffer. After reading the baseline, compounds were added in a volume of 10 μL; then, DMR changes were recorded for 60 min. Responses were described as picometer (pm) shifts over time (sec) following subtraction of values from vehicle-treated wells. Maximum picometer (pm) modification (peak) was used to generate concentration response curves. All the experiments were carried out at 37 °C.
The pharmacological terminology adopted in this paper is consistent with IUPHAR recommendations.[59] All data are expressed as the mean ± standard error of the mean (SEM) of at least three experiments performed in duplicate. […] Concentration-response curves to agonists were fitted to the classical four-parameter logistic nonlinear regression model:
Effect = Baseline + (Emax – Baseline)/(1 + 10^(LogEC50 – Log[compound]) × Hillslope). Curve fitting was performed using PRISM 6.0 (GraphPad Software Inc., San Diego).

In assay [2] the target is T2, human NOP receptor (Homo sapiens, UniProt P41146).
T2 construct: expressed in transfected cells; host or cells: CHO cells stably coexpressing the receptor and chimeric Gαqi5
In words: Calcium mobilization, NOP receptor. The assay is classed as cell-based. The following applies: for NOP pEC50 (CL95%): CHO cells coexpressing human NOP and Gαqi5, Fluo-4 AM, 37 °C, mean of at least three experiments in duplicate, CL95% in brackets; for NOP Emax ± S.E.M.: mean ± SEM of at least three experiments in duplicate. In short, it runs like this:
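CHO cells stably co-expressing the receptor and chimeric Gαqi5 were loaded with 3 μM Fluo-4 AM with probenecid for 30 min at 37 °C. Fluorescence was read on compound addition at 37 °C as maximal change over baseline.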

The target of assay [3] is T1, human mu receptor. In words: Calcium mobilization, mu opioid receptor. To be noted: percent over the baseline fluorescence, mean ± SEM of at least three experiments in duplicate, SEM. It is filed as cell-based.
Description: CHO cells stably coexpressing the human NOP or kappa or the mu receptor and the C-terminally modified Gαqi5 and CHO cells coexpressing the delta receptor and the GαqG66Di5 protein were generated and cultured as described previously.[45],[46] Cells were maintained in Dulbecco’s modified Eagle’s medium/nutrient mixture F-12 (DEMEM/F-12) supplemented with 10% FBS, 100 U/mL penicillin and 100 μg/mL streptomycin, 100 μg/mL hygromicin B, and 200 μg/mL G418 and cultured at 37 °C in 5% CO2 humidified air. Cells were seeded at a density of 50,000 cells/well into 96-well black, clear-bottom plates. The following day, the cells were incubated with Hanks’ balanced salt solution (HBSS) supplemented with 2.5 mM probenecid, 3 μM of the calcium-sensitive fluorescent dye Fluo-4 AM, and 0.01% pluronic acid for 30 min at 37 °C. After that time, the loading solution was aspirated and 100 μL/well of HBSS supplemented with 20 mM HEPES, 2.5 mM probenecid, and 500 μM brilliant black was added. Serial dilutions were carried out in HBSS/HEPES (20 mM) buffer (containing 0.02% BSA fraction V). After placing both plates (cell culture and master plate) into the fluorometric imaging plate reader FlexStation II (Molecular Devices, Sunnyvale, CA), fluorescence changes were measured. On-line additions were carried out in a volume of 50 μL/well. To facilitate drug diffusion into the wells, the present studies were performed at 37 °C. Maximum change in fluorescence, expressed as percent over the baseline fluorescence, was used to determine agonist response.
Assay [4] has as its target T2, human NOP receptor. As to the kind of experiment: Dynamic mass redistribution (DMR), NOP receptor. The assay is classed as cell-based. As to the method: as §1, with “All the experiments were carried out at 37 °C.” left out
The pharmacological terminology adopted in this paper is consistent with IUPHAR recommendations.[59] All data are expressed as the mean ± standard error of the mean (SEM) of at least three experiments performed in duplicate. […]

The subject of assay [5] is NOP, mu, kappa, delta receptors. The following applies: functional studies with human recombinant receptors; cited from earlier work. The source says:
Finally, the effects of [Dmt^1,5]N/OFQ(1-13)-NH2 at kappa and delta opioid receptors were investigated. […] Of note, the kappa potency of [Dmt^1,5]N/OFQ(1-13)-NH2 was similar to that shown at NOP and mu receptors. […] Moreover, similar results have b ...

T1 sequence (P35372 whole entry): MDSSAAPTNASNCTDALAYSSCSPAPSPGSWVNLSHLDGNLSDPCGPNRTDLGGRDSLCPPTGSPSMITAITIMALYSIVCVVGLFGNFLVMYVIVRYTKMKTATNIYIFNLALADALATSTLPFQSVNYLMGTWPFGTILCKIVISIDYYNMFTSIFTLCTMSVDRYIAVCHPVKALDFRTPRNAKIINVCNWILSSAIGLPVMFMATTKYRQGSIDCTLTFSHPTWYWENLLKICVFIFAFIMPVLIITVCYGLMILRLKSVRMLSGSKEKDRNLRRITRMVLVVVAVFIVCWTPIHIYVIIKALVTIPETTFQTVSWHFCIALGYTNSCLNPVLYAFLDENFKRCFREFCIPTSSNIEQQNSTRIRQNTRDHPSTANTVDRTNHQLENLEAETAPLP
T2 sequence (P41146 whole entry): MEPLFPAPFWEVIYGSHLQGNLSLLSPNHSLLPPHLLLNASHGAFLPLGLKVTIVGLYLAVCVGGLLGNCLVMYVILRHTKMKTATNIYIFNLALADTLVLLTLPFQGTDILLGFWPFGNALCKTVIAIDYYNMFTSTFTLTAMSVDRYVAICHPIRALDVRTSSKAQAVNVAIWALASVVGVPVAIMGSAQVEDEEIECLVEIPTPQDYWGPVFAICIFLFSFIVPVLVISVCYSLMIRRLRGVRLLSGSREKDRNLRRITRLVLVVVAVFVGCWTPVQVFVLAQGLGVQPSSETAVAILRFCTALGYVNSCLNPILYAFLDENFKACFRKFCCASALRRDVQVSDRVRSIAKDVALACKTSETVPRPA

With `CC(C)C[C@H](NC(=O)[C@H](CCCCN)NC(=O)[C@H](CCCNC(=N)N)NC(=O)[C@H](C)NC(=O)[C@H](CO)NC(=O)[C@H](CCCCN)NC(=O)[C@H](CCCNC(=N)N)NC(=O)[C@H](C)NC(=O)CNC(=O)[C@@H](NC(=O)[C@H](Cc1ccccc1)NC(=O)CNC(=O)CNC(=O)[C@@H](N)Cc1ccccc1)[C@@H](C)O)C(=O)N[C@@H](C)C(=O)N[C@@H](CC(N)=O)C(=O)N[C@@H](CCC(N)=O)C(=O)O` [Compound 36, N/OFQ], the “mu pEC50 (CL95%)” value in assay [1] (DMR, CHO cells expressing human mu receptor, 60 min, 37 °C, mean of at least three experiments in duplicate, CL95% in brackets) is “inactive”. Moreover, the “mu Emax ± S.E.M.” value in assay [1] (DMR) was “inactive”. Besides, in assay [1] (molecular formula strings CSV, value of Compound_36 repeats the DMR result of Table 4), the pEC50_mu entry was “inactive”.
Consider `C[C@@H](NC(=O)[C@@H](N)Cc1ccc(O)cc1)C(=O)N[C@@H](Cc1ccccc1)C(=O)NCC(=O)N[C@@H](Cc1ccc(O)cc1)C(=O)N1CCC[C@H]1C(=O)N[C@@H](CO)C(N)=O` [Compound 2, dermorphin, reference compound], for which the “NOP pEC50 (CL95%)” value in assay [2] (Table 1 series, FlexStation II) was “inactive”; in assay [2] (Table 2 series), “inactive”; in assay [2] (Table 3 series), “inactive”; in assay [4] (CHO cells expressing human NOP, label-free EnSight reader, 60 min, 37 °C, mean of at least three experiments in duplicate, CL95% in brackets) it was “inactive”. Moreover, the “NOP Emax ± S.E.M.” value in assay [2] (Table 1 series, maximum change in fluorescence as percent over the baseline fluorescence) is “inactive”; in assay [2] (Table 2 series, percent over the baseline fluorescence), “inactive”; in assay [2] (Table 3 series, percent over the baseline fluorescence), “inactive”; in assay [4] (maximum picometer (pm) modification (peak), mean ± SEM of at least three experiments in duplicate), “inactive”. In assay [2] (molecular formula strings CSV, repeats calcium mobilization values of Tables 1-3), the pEC50_NOP entry is “inactive”. The Emax in assay [3] (read-out: mu Emax ± S.E.M, Table 1 series) came out at 380 ± 15%; in assay [3] (read-out: mu Emax ± S.E.M., Table 2 series), 306 ± 23%; in assay [3] (read-out: mu Emax ± S.E.M., Table 3 series), 359 ± 18%. The “mu Emax ± S.E.M.” value in assay [1] (DMR, SEM) is listed as 151 ± 16.
As to [Dmt^1]N/OFQ(1-13)-NH2, in assay [5], the “rank order of potency” value is reported as “NOP = mu > kappa > delta”.
